Reference: patent US6855730B2, “3-methylidenyl-2-indolinone modulators of protein kinase” (Sugen, Inc., priority 1998, dated 2005)

Target: T1, 3T3 cell line genetically engineered to express human EGF-R (Homo sapiens, UniProt P00533)
T1 construct: expressed in transfected cells; host or cells: 3T3
Assay: EGF-induced BrdU incorporation assay
Assay type: cell-based
Details: read-out: BrdU EGF driven IC50
Experimental: The cellular/catalytic assays described herein are performed in an ELISA format. The general procedure is as follows: a compound is introduced to cells expressing the test kinase, either naturally or recombinantly, for a selected period of time after which, if the test kinase is a receptor, a ligand known to activate the receptor is added. The cells are lysed and the lysate is transferred to the wells of an ELISA plate previously coated with a specific antibody recognizing the substrate of the enzymatic phosphorylation reaction. Non-substrate components of the cell lysate are washed away and the amount of phosphorylation on the substrate is detected with an antibody specifically recognizing phosphotyrosine compared with control cells that were not contacted with a test compound. The cellular/biologic assays described herein measure the amount of DNA made in response to activation of a test kinase, which is a general measure of a proliferative response. The general procedure for this assay is as follows: a compound is introduced to cells expressing the test kinase, either naturally or recombinantly, for a selected period of time after which, if the test kinase is a receptor, a ligand known to activate the receptor is added. After incubation at least overnight, a DNA labeling reagent such as Bromodeoxyuridine (BrdU) or 3H-thymidine is added. The amount of labeled DNA is detected with either an anti-BrdU antibody or by measuring radioactivity and is compared to control cells not contacted with a test compound. […]
Protocol • (1) Cells are seeded at 8000 cells/well in 10% CS, 2mM Gin in DMEM, in a 96 well plate. Cells are incubated overnight at 37° C. in 5% CO2. • (2) After 24 hours, the cells are washed with PBS, and then are serum starved in serum free medium (0% CS DMEM with 0.1% BSA) for 24 hours. • (3) On day 3, ligand (EGF, 2 nM, prepared in DMEM with 0.1% BSA) and test compounds are added to the cells simultaneously. The negative control wells receive serum free DMEM with 0.1% BSA only, the positive control cells receive the ligand (EGF) but no test compound. Test compounds are prepared in serum free DMEM with ligand in a 96 well plate, and serially diluted for 7 test concentrations. • (4) After 20 hours of ligand activation, diluted BrdU labeling reagent (1:100 in DMEM, 0.1% BSA) is added and the cells are incubated with BrdU (final concentration=10 μM) for 1.5 hours. • (5) After incubation with labeling reagent, the medium is removed by decanting and tapping the inverted plate on a paper towel. FixDenat solution is added (50 μl/well) and the plates are incubated at room temperature for 45 minutes on a plate shaker. • (6) The FixDenat solution is thoroughly removed by decanting and tapping the inverted plate on a paper towel. Milk is added (5% dehydrated milk in PBS, 200 μl/well) as a blocking solution and the plate is incubated for 30 minutes at room temperature on a plate shaker. • (7) The blocking solution is removed by decanting and the wells are washed once with PBS. Anti-BrdU-POD solution (1:100 dilution in PBS, 1% BSA) is added (100 μ/well) and the plate is incubated for 90 minutes at room temperature on a plate shaker. • (8) The antibody conjugate is thoroughly removed by decanting and rinsing the wells 5 times with PBS, and the plate is dried by inverting and tapping on a paper towel. • (9) TMB substrate solution is added (100 μl/well) and incubated for 20 minutes at room temperature on a plate shaker until color development is sufficient for photometric detection. • (10) The absorbance of the samples are measured at 410 nm (in “dual wavelength” mode with a filter reading at 490 nm, as a reference wavelength) on a Dynatech ELISA plate reader.

| Compound | IC50 [µM] |
| --- | --- |
| COc1ccc(C=C2C(=O)Nc3cc(NC(C)=O)ccc32)cc1-c1cccc(NC(C)=O)c1 (mixture of isomers) [Example 63, N-[3-(3′-Acetylamino-6-methoxybiphenyl-3-ylmethylene)-2-oxo-2,3-dihydro-1H-indol-6-yl]-acetamide] | 30.5 |
| COc1cc(/C=C2/C(=O)Nc3ccccc32)c(-c2ccc3ccccc3c2)cc1OC [Example 62, 3-(4,5-Dimethoxy-2-naphthalen-2-ylbenzylidene)-1,3-dihydroindol-2-one] | > 50 |
| COc1ccc(/C=C2/C(=O)Nc3ccc(Cl)cc32)cc1-c1cccs1 [Example 59, 5-chloro-3-(4-Methoxy-3-thiophen-2-ylbenzylidene)-1,3-dihydroindol-2-one] | 44.5 |
| COc1cccc(-c2cc(OC)c(OC)cc2/C=C2/C(=O)Nc3ccc(Cl)cc32)c1 [Example 61, 5-Chloro-3-(4,5-3′-Trimethoxybiphenyl-2-ylmethylene)-1,3-dihydroindol-2-one] | > 50 |
| COc1ccc(/C=C2/C(=O)Nc3ccccc32)cc1C1CCCCC1 [Example 12, 3-(3-Cyclohexyl-4-methoxybenzylidene)-1,3-dihydroindol-2-one] | 30.6 |
| COc1cc(C)c(/C=C2/C(=O)Nc3ncccc32)cc1C(C)C [Example 45, 3-(5-Isopropyl-4-methoxy-2-methylbenzylidene)-1,3-dihydro-pyrrolo[2,3-b]pyridin-2-one] | > 50 |
| COc1cc(C)c(C=C2C(=O)Nc3ccccc32)cc1C(C)C [Example 8, 3-(5-Isopropyl-4-methoxy-2-methylbenzylidene)-1,3-dihydroindol-2-one] | > 50 |
| COc1ccc(/C=C2/C(=O)Nc3ncccc32)cc1C1CCCC1 [Example 47, 3-(3-Cyclopentyl-4-methoxybenzylidene)-1,3-dihydropyrrolo[2,3-b]pyridin-2-one] | > 50 |
| COc1cc(C)c(/C=C2/C(=O)Nc3ccc(Br)cc32)cc1C(C)C [Example 36, 5-Bromo-3-(5-isopropyl-4-methoxy-2-methyl-benzylidene)-1,3-dihydroindol-2-one] | 31 |
| COc1ccc(/C=C2/C(=O)Nc3ccc(CCN4CCOCC4)cc32)cc1-c1ccsc1 [Example 26, 3-(4-Methoxy-3-thiophen-3-ylbenzylidene)-5-(2-morpholin-4-yl-ethyl)-1,3-dihydroindol-2-one] | > 50 |
| COc1ccc(/C=C2/C(=O)Nc3cc(NC(C)=O)ccc32)cc1-c1ccsc1 [Example 18, N-[3-(4-Methoxy-3-thiophene-3-ylbenzylidene)-2-oxo-2,3-dihydro-1H-indol-6-yl]-acetamide] | > 50 |
| CC(=O)Nc1ccc2c(c1)NC(=O)/C2=C/c1ccc(OCCN2CCOCC2)c(-c2ccsc2)c1 [Example 50, N-{3-[4-(2-Morpholin-4-ylethoxy)-3-thiophen-3-ylbenzylidene]-2-oxo-2,3-dihydro-1H-indol-6-yl}-acetamide] | 37.9 |
| COc1ccc(/C=C2/C(=O)Nc3ccc(Cl)cc32)cc1-c1cccnc1 [Example 60] | > 50 |
| CCOc1cccc(-c2cc(C=C3C(=O)Nc4ccccc43)ccc2OC)c1 [Example 46, 3-(3′-Ethoxy-6-methoxybiphenyl-3-ylmethylene)-1,3-dihydroindol-2-one] | 45.7 |

More lines, in order of falling IC50, values ahead:

| IC50 [µM] | Compound |
| --- | --- |
| 30.3 | COc1cc(C)c(/C=C2/C(=O)Nc3ccc(F)cc32)cc1C(C)C [Example 30, 5-Fluoro-3-(5-isopropyl-4-methoxy-2-methyl-benzylidene)-1,3-dihydroindol-2-one] |
| 29 | COc1ccc(/C=C2/C(=O)Nc3ccccc32)cc1C1CCCC1 [Example 10, 3-(3-Cyclopentyl-4-methoxybenzylidene)-1,3-dihydroindol-2-one] |
| 27.5 | CCOc1cccc(-c2cc(OC)c(OC)cc2/C=C2/C(=O)Nc3ccccc32)c1 [Example 58, 3-(3′-Ethoxy-4,5-dimethoxybiphenyl-2-ylmethylene)-1,3-dihydroindol-2-one] |
| 26.6 | COc1c(C(C)C)cc(/C=C2/C(=O)Nc3cc(O)ccc32)cc1C(C)C [Example 4, 3-(3,5-Diisopropyl-4-methoxybenzylidene)-6-hydroxy-1,3-dihydroindol-2-one] |
| 26.6 | COc1ccc(/C=C2/C(=O)Nc3ccc(Br)cc32)cc1-c1ccccc1 [Example 13, 5-Bromo-3-(6-methoxybiphenyl-3-ylmethylene)-1,3-dihydroindol-2-one] |
| 24.5 | COc1ccc(/C=C2/C(=O)Nc3ccccc32)cc1C(C)C [Example 7, 3-(3-Isopropyl-4-methoxybenzylidene)-1,3-dihydroindol-2-one] |
| 23.3 | COc1ccc(/C=C2/C(=O)Nc3ccc(F)cc32)cc1C1CCCC1 [Example 11, 3-(3-Cyclopentyl-4-methoxybenzylidene)-5-fluoro-1,3-dihydroindol-2-one] |
| 16.2 | COc1cc(/C=C2/C(=O)Nc3ccccc32)c(-c2cccs2)cc1OC [Example 39, 3-(4,5-Dimethoxy-2-thiophen-2-ylbenzylidene)-1,3-dihydroindol-2-one] |
| 15.2 | COc1ccc(C=C2C(=O)Nc3ccccc32)cc1-c1cccc(NC(C)=O)c1 [Example 29, N-[2′-Methoxy-5′-(2-oxo-1,2-dihydroindol-3-ylidenemethyl)-biphenyl-3-yl]-acetamide] |
| 12 | COC(=O)c1ccc2c(c1)/C(=C\c1cc(C(C)C)c(OC)c(C(C)C)c1)C(=O)N2 [Example 6, 3-(3,5-Diisopropyl-4-methoxybenzylidene)-2-oxo-2,3-dihydro-1H-indole-5-carboxylic acid methyl ester] |
| 11 | COc1cc(C)c(C=C2C(=O)Nc3ccc(Cl)cc32)cc1C(C)C [Example 9, 5-Chloro-3-(5-isopropyl-4-methoxy-2-methylbenzylidene)-1,3-dihydroindol-2-one] |
| 11 | CC1(C)CCc2cc(C=C3C(=O)Nc4ccc(Br)cc43)ccc2O1 (racemic) [Example 34, 5-Bromo-3-(2,2-dimethylchroman-6-ylmethylene)-1,3-dihydroindol-2-one] |
| 11 | COc1c(C(C)C)cc(/C=C2/C(=O)Nc3cc(NC(C)=O)ccc32)cc1C(C)C [Example 3, N-[3-(3,5-Diisopropyl-4-methoxybenzylidene)-2-oxo-2,3-dihydro-1H-indol-6-yl]-acetamide] |
| 8 | COc1c(C)cc(/C=C2/C(=O)Nc3ccc(Cl)cc32)cc1C [Example 21, 5-Chloro-3-(4-methoxy-3,5-dimethylbenzylidene)-1,3-dihydroindol-2-one] |
| 7.8 | CC1(C)CCc2cc(/C=C3/C(=O)Nc4ccc(Cl)cc43)ccc2O1 [Example 15, 5-Chloro-3-(2,2-dimethyl-chroman-6-ylmethylene)-1,3-dihydroindol-2-one] |
| 7.5 | CC(C)c1cc(/C=C2/C(=O)Nc3ccc(Cl)cc32)cc(C(C)C)c1OCCN1CCOCC1 [Example 24, 5-chloro-3-[3,5-diisopropyl-4-(2-morpholin-4-ylethoxy)-benzylidene]-1,3-dihydroindol-2-one] |
| 7.4 | COc1ccc2c(c1)/C(=C\c1cc(C(C)C)c(OC)c(C(C)C)c1)C(=O)N2 [Example 17, 3-(3,5-Diisopropyl-4-methoxybenzylidene)-5-methoxy-1,3-dihydroindol-2-one] |
| 7.2 | COc1c(C(C)C)cc(/C=C2/C(=O)Nc3ccc(C(C)=O)cc32)cc1C(C)C [Example 5, 5-Acetyl-3-(3,5-diisopropyl-4-methoxybenzylidene)-1,3dihydroindol-2-one] |
| 6.4 | CC(=O)Nc1ccc2c(c1)NC(=O)/C2=C/c1ccc(OCCN2CCOCC2)c(C2CCCCC2)c1 [Example 16, N-{3-[3-Cyclohexyl-4-(2-morpholin-4-ylethoxy)-benzylidene]-2-oxo-2,3-dihydro-1H-indol-6-yl}-acetamide] |
